# From patent publication US4013774A (priority 1975, dated 1977)
# Read-outs that look alike come from different tables or passages of the source.
# Assays:
# [1] = system: American Cockroach (Periplaneta americana L.); assay: whole plant or invertebrate; conditions: 24 h; for mortality at 16 ppm: read-out: Cockroach, mortality, 16 ppm
# [2] = system: Aphids (Aphis gossypii Glover); assay: whole plant or invertebrate; conditions: in Cucumis sativus, 24 h; for mortality at 4 ppm: read-out: Aphids, mortality, 4 ppm; for mortality at 40 ppm: read-out: Aphids, mortality, 40 ppm (*)
# [3] = system: Flour Beetle (Tribolium confusum DuVal); assay: whole plant or invertebrate; conditions: in Triticum aestivum, 168 h, read-out: Flour Beetle, mortality, 5 ppm
# [4] = in vivo; conditions: rat, po
# [5] = system: Mosquito larvae (Aedes aegypti); assay: whole plant or invertebrate; conditions: 48 h, read-out: Mosquito, mortality, 0.05 ppm
# [6] = system: rats; conditions: background statement; cited from earlier work
# [7] = system: insects; conditions: against a variety of insects; background, U.S. Pat. No. 3,474,171; cited from earlier work
# [8] = topical, read-out: Cockroach, mortality, 100 ppm
# [9] = read-out: Aphids, mortality, 0.64 ppm
SMILES,mortality at 100 ppm ([1]; read-out: control of American cockroaches),mortality at 0.64 ppm ([2]; read-out: control of aphids),mortality at 5 ppm [3],mortality at 16 ppm ([1]; topical),"mortality at 100 ppm [1, 8]","mortality at 0.64 ppm [2, 9]",mortality at 4 ppm [2],LD50 [4],mortality at 0.05 ppm [5],mortality at 40 ppm [2],"oral toxicity, LD50 (rats) [6]",contact and systemic activity [7]
"CN(SN(C)C(=O)Oc1cccc2c1OC(C)(C)C2)C(=O)Oc1cccc2c1OC(C)(C)C2 [Bis[O-(2,3-dihydro-2,2-dimethyl-7-benzofuranyl]-N-methylcarbamyl] sulfide]",100%,100%,–,–,–,–,–,–,–,–,–,–
"CN(SC(Cl)(Cl)Cl)C(=O)Oc1cccc2c1OC(C)(C)C2 [Compound 1, N-methyl-N-trichloromethylthio-2,3-dihydro-2,2-dimethyl-7-benzofuranyl carbamate]",–,–,100%,15%,100%,91%,100%,125 to 250 mg/kg,46%,–,–,–
"CSN(C)C(=O)Oc1cccc2c1OC(C)(C)C2 [Compound 3, 2,3-dihydro-2,2-dimethyl-7-benzofuranyl N-methyl N-methylthiocarbamate]",–,–,–,100%,100%,97%,100%,5 to 25 mg/kg,–,–,–,–
"CN(Sc1ccc(Cl)cc1)C(=O)Oc1cccc2c1OC(C)(C)C2 [Compound 4, 2,3-dihydro-2,2-dimethyl-7-benzofuranyl N-methyl N-p-chlorophenylthiocarbamate]",–,–,96%,5%,100%,97%,100%,25 to 41 mg/kg,100%,–,–,–
"CN(SC(Cl)=C(Cl)Cl)C(=O)Oc1cccc2c1OC(C)(C)C2 [Compound 5, N-methyl-N-trichlorovinylthio-2,3-dihydro-2,2-dimethyl-7-benzofuranyl carbamate]",–,–,–,47%,100%,100%,100%,–,–,–,–,–
CCCCSN(C)C(=O)Oc1cccc2c1OC(C)(C)C2 [Compound 6],–,–,–,95%,100%,97%,100%,60 to 125 mg/kg,100%,–,–,–
"CCSN(C)C(=O)Oc1cccc2c1OC(C)(C)C2 [Compound 7, N-methyl-N-ethylthio-2,3-dihydro-2,2-dimethyl-7-benzofuranyl carbamate]",–,–,–,–,–,92%,–,25 to 125 mg/kg,26%,–,–,–
"CCCCCCCCCCCCSN(C)C(=O)Oc1cccc2c1OC(C)(C)C2 [Compound 8, N-methyl-N-dodecylthio-2,3-dihydro-2,2-dimethyl-7-benzofuranyl carbamate]",–,–,–,0%,20%,–,–,> 125 mg/kg,–,100%,–,–
"CN(Sc1ccccc1)C(=O)Oc1cccc2c1OC(C)(C)C2 [Compound 9, N-methyl-N-phenylthio-2,3-dihydro-2,2-dimethyl-7-benzofuranyl carbamate]",–,–,–,37%,100%,98%,100%,25 to 125 mg/kg,–,–,–,–
Cc1ccc(SN(C)C(=O)Oc2cccc3c2OC(C)(C)C3)cc1 [Compound 10],–,–,76%,2%,100%,96%,100%,25 to 125 mg/kg,–,–,–,–
CN(Sc1ccc(Cl)c(Cl)c1)C(=O)Oc1cccc2c1OC(C)(C)C2 [Compound 11],–,–,–,–,–,97%,–,25 to 125 mg/kg,100%,–,–,–
CN(Sc1cc(Cl)ccc1Cl)C(=O)Oc1cccc2c1OC(C)(C)C2 [Compound 12],–,–,–,–,–,61%,–,25 to 125 mg/kg,100%,–,–,–
CN(Sc1ccc(Br)cc1)C(=O)Oc1cccc2c1OC(C)(C)C2 [Compound 13],–,–,–,–,–,98%,–,25 to 125 mg/kg,93%,–,–,–
"CN(Sc1ccc(F)cc1)C(=O)Oc1cccc2c1OC(C)(C)C2 [Compound 14, N-methyl-N-4-fluorophenylthio-2,3-dihydro-2,2-dimethyl-7-benzofuranyl carbamate]",–,–,–,–,–,92%,–,25 to 125 mg/kg,100%,–,–,–
CN(Sc1ccc([N+](=O)[O-])cc1)C(=O)Oc1cccc2c1OC(C)(C)C2 [Compound 15],–,–,–,97%,100%,96%,100%,25 to 60 mg/kg,–,–,–,–
CN(Sc1ccc(C(C)(C)C)cc1)C(=O)Oc1cccc2c1OC(C)(C)C2 [Compound 16],–,–,–,0%,67%,–,–,125 to 250 mg/kg,–,100%,–,–
"CNC(=O)Oc1cccc2c1OC(C)(C)C2 [FURADAN, N-methyl 2,3-dihydro-2,2-dimethyl-7-benzofuranyl carbamate, reference compound]",–,–,10%,100%,100%,73 to 98%,100%,11 mg/kg,0%,–,5 to 11 mg/kg,high contact and systemic activity
